Measurements published in patent publication US11364244B2, “Compositions for treatment of muscular disorders” (ONCOCROSS CO., LTD., priority 2018, dated 2022).

Tests used:
[1] = test system: mice transplanted with colorectal cancer cells CT26; assay: Cancer-associated muscle and fat reduction (CT26 transplant + 5-FU, MRI); format: in vivo, mouse; settings: for fat mass / muscle mass: CT26 + 5-FU mice, treated alone or in combination, MRI every week
Procedure: Cancer-associated sarcopenia was induced by administering 5-FU (5-fluorouracil) as an anticancer agent to mice transplanted with colorectal cancer cells CT26. […] MRI was measured every week to determine muscle and fat changes in OC-501 and 504 alone and combination-treated groups (FIG. 19).

[2] = test system: Mouse myoblast strain C2C12; assay: Myoblast proliferation (MTT, OD 595 nm) under H2O2; format: cell-based; settings: single component 250 nM-20 μM, 400 nM H2O2, 16 hours
Procedure: Mouse myoblast strain C2C12 was dispensed in 96-well plates at 1.5×10^3 cells/well, and then cultured in DMEM medium containing 10% fetal bovine serum (FBS) at 37° C. and 5% CO2 for one day at a low density manner. […] At 16 hours since the replacement, the wells were treated with MTT reagent and then the mouse myoblast strain C2C12 was incubated in the DMEM medium in a dark incubator for 3 hours. After removing supernatant therefrom and applying 100 μl of DMSO to the well, the optical density (OD) was measured at 595 nm. Cells were identified using a microscope.

[3] = test system: Mouse myoblast strain C2C12; assay: Myoblast differentiation (microscope; Western blot of myogenin and MHC); format: cell-based; settings: for differentiation of myoblast (microscope): single component 500 nM up to 10 or 20 μM, 400 μM H2O2, 2% horse serum, 5 to 7 days
Procedure: (§1) Mouse myoblast strain C2C12 was dispensed into 12-well plates at 0.7×10^5 cells/well and then cultured to a cell density of 70 to 80%. […] Differentiation of the myoblast was induced for 5 to 7 days while the replacement of the medium occurred every other day. After the differentiation, cells were identified using a microscope (4× and 10× magnification), and cells were disrupted and then Western blot analysis was performed using differentiation markers myogenin and myosin heavy chain (MHC) antibodies.
(§2) Mouse myoblast strain C2C12 was dispensed into 12-well plates at 0.7×10^5 cells/well and then cultured to a cell density of 70 to 80%. The cells were then washed with PBS and then the medium was replaced with DMEM medium (differentiation medium) containing 2% horse serum, 400 μM H2O2, and harmol (OC-503) of 0 nM (DMSO), 500 nM, 1 μM, 2.5 μM, 5 μM, or 10 μM respectively. Differentiation of the myoblast was induced for 5 to 7 days while the replacement of the medium occurred every other day. After the differentiation, cells were identified using a microscope, and cells were disrupted, and then Western blot analysis was performed using differentiation markers myogenin and myosin heavy chain (MHC) antibodies.
as §2, with “H2O2, and calcium pantothenate (OC-504) of 0” for “H2O2, and harmol (OC-503) of 0”, “500 nM, 2.5 μM,” for “500 nM, 1 μM, 2.5 μM,”, “5 μM, 10 μM or 20” for “5 μM, or 10”, “μM or 20 μM respectively.” for “μM, or 10 μM respectively.”, “using a microscope (4× and 10× magnification), and cells” for “using a microscope, and cells”
as §1, with “disrupted,” for “disrupted”

[4] = test system: tibialis anterior muscle of the mouse; assay: Early recovery of muscle fibers after cardiotoxin injury; format: in vivo; settings: alone 30 mpk, combination each 15 or 30 mpk, 3 days after cardiotoxin
[5] = test system: Mesenchymal stem cells; assay: Differentiation markers PAX7/MYF5 (Western blot) in stem cells isolated from cobratoxin-injured muscle; format: cell-based, mouse; settings: OC-501 10 μM, OC-504 5 μM, individually or in combination; 4 days after the application
Procedure: Mesenchymal stem cells were isolated on day 3 after cobratoxin was inserted into the tibialis anterior muscle of the mouse. […] West blot analysis was performed using differentiation markers PAX7 (paired box protein-7) and MYF5 (Myogenic factor 5) antibodies. After the differentiation, cells were identified using a microscope (4× and 10× magnification).

[6] = anticancer drug administered to CT26-transplanted mice, MRI

Q: For O=c1[nH]cc(F)c(=O)[nH]1 [5-FU, 5-fluorouracil], which fat decrease [1, 6] is on record?
A: 95%

Q: And the muscle amount decrease [1, 6]?
A: about 40%

Q: Which results are given for CC(C)(CO)[C@@H](O)C(=O)NCCC(=O)O [calcium pantothenate]?
A: fat mass [1]: increased; muscle mass [1]: increased; myoblast proliferation [2]: not to promote myoblast proliferation; differentiation of myoblast (microscope) [3]: promoted differentiation of myoblast; differentiation promotion (Western blot myogenin and MHC) ([3]; single component at 5 μM): increased especially; differentiation promotion (Western blot myogenin and MHC) ([3]; single component at 10 μM): increased especially; muscle fiber size [4]: well sparred; expression of PAX7 [5]: increased

Q: With CN(C)CCOC(c1ccccc1)c1ccccc1.Cn1c(=O)c2[nH]c(Cl)nc2n(C)c1=O [dimenhydrinate] as the compound, how does the fat mass [1] read?
A: increased

Q: And the muscle mass [1]?
A: increased

Q: And the “differentiation promotion (Western blot myogenin and MHC)” value (from here on “differentiation promotion”) ([3]; single component at 5 μM)?
A: increased especially

Q: And the muscle fiber size [4]?
A: well sparred

Q: Which myoblast proliferation [2] does the source give for harmol here?
A: not to promote myoblast proliferation

Q: And the “differentiation of myoblast (microscope)” value [3]?
A: promoted differentiation of myoblast

Q: And the “differentiation promotion” value ([3]; single component at 5 μM)?
A: increased especially

Q: And the “differentiation promotion” value ([3]; single component at 10 μM)?
A: increased especially
